Measurements published in patent US20250034531A1, “METHOD FOR PRODUCING STEM CELLS” (priority 2021, published 2025).

Experiments:
[1] = system: Human peripheral blood mononuclear cells; details: 10 nmol/L in RPMI 1640 medium with IL-2 added daily; KLF4, OCT3/4, SOX2, c-MYC by CytoTune-iPS 2.0; 14th day; FIG. 2
Experimental: Human peripheral blood mononuclear cells were put into the culture medium, and a culture medium containing about 1×10^6 monocytes was put into a 24-well plate (1st day). 1 μL of 20 μg/mL IL-2 was added to the culture medium every day. On the third day, the culture medium containing the cells was recovered from the plates, the culture medium was centrifugally separated, and the supernatant was removed. Then, 2 mL of a new HMBPP-containing medium was added to the cells, and 1 mL was put into each of two wells of a 24-well plate.
On the 6th day, the culture medium containing the cells was recovered from the plates, the culture medium was centrifugally separated, and the supernatant was removed. Then, an HMBPP-containing medium was added to the cells, and a culture medium containing 2×10^4 monocytes was put into a 96-well plate. KLF4, OCT3/4, SOX2, and c-MYC were introduced into the cells by using CytoTune-iPS 2.0 (Thermo Fisher Scientific, Inc.). The multiplicity of infection (MOI) was adjusted to be 20 to 30.
On the 7th day, the culture medium containing the cells recovered from the 96-well plate were added with a fresh HMBPP-containing medium and put into a 6-well plate. On the 8th, 10th, and 12th days, a stem cell culture medium (Stem Fit, Ajinomoto Co., Inc.) was added thereto, and thereafter, the culture medium was replaced using the stem cell culture medium.

Vγ9 gene = details: genomic DNA of the iPS cells; γδT cells as positive control; FIG. 4
Experimental: iPS cells were induced in the same manner as in Example 1, except that HMBPP in the HMBPP-containing medium was changed to 5 μL of zoledronic acid (Zol, Sigma-Aldrich Co., LLC).

With `C/C(=C\COP(=O)(O)OP(=O)(O)O)CO` [HMBPP, (E)-4-hydroxy-3-methyl-but-2-enyl pyrophosphate] as the compound, how does the “colonies of iPS cells formed” value [1] read?
Its value is “a plurality of colonies of iPS cells has been formed”.

And the “rearranged Vγ9 gene having the J1/J2 gene in the established iPS cells” value (Vγ9 gene)?
Its value is “have a Vγ9 gene that has undergone rearrangement”.
